Measurements taken from patent publication US10202350B2, “MCT4 inhibitors for treating disease” (Vettore, LLC, priority 2015, dated 2019).

Key:
MCT1 = MCT1 (Homo sapiens (Human), UniProt P53985); assay: MCT1-mediated lactate transport in BT20 breast cancer cells; format: cell-based; details: native MCT1, 10 mM L-lactate, Table 3
Procedure: (§1) 10 μL of a 30 mM DMSO stock of BCECF-AM ester (Life Technologies) is added and the cells are incubated at 37° C. for 5 min. The cells are pelleted (300 g, 5 min), washed once with 1 mL Tyrode's Solution, pH 7.4, re-pelleted (300 g, 5 min), and resuspended in 1 mL Tyrode's Solution, pH 7.4.
(§2) 2.5 μL BCECF-loaded cells, along with either 10 μL DMSO or 100×compound in DMSO, are added to 937.5 μL of Tyrode's Solution in a quartz 1.0 mL cuvette (PerkinElmer, B0631116). […] After establishing baseline BCECF fluorescence (around 10-20 s), 50 μL of 1 M sodium L-lactate (Sigma-Aldrich) is added to the cuvette (final concentration: 50 mM) and rapidly mixed. The time-dependent decrease in BCECF fluorescence (490/440 ratio) may be fit to an exponential decay curve (Prism GraphPad) to determine the rate of lactate transport.
Assay 4: MCT1-Mediated Lactate Transport in BT20 Breast Cancer Cells.
Preparation of BCECF loaded cells are as described for Assay 1. Lactate transport assay is as described for Assay 1, except 10 mM L-lactate (rather than 50 mM) is added.

MCT4 = MCT4 (Homo sapiens (Human), UniProt O15427); assay: MCT4-mediated lactate transport in MDA-MB-231 breast cancer cells; format: cell-based; details: MDA-MB-231 cells, native MCT4; 50 mM L-lactate
Chain of MCT4 (O15427 whole entry, looked up): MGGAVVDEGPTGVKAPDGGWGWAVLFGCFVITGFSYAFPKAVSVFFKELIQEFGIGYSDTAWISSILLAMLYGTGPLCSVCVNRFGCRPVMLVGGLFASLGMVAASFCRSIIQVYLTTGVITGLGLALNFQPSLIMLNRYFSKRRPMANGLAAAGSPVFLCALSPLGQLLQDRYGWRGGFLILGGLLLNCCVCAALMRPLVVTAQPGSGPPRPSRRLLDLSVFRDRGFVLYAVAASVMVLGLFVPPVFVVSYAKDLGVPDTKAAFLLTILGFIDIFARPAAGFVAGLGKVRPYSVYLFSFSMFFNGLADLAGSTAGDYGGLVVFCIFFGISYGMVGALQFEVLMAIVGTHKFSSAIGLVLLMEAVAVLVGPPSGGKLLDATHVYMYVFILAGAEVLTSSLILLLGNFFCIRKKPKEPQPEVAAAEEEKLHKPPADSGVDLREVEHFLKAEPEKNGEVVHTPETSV
Chain of MCT4 (P35613 whole entry partner, looked up): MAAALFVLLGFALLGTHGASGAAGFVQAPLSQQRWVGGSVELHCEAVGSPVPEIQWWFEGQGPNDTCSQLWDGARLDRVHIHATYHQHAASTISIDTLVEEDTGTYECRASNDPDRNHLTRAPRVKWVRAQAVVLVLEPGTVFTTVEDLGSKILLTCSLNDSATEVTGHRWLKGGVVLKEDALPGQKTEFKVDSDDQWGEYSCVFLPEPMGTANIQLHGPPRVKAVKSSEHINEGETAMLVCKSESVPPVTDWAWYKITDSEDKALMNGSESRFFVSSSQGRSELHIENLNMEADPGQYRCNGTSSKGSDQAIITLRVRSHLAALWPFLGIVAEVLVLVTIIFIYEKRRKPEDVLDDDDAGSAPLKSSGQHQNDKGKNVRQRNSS
Procedure: as §1, §2
Preparation of BCECF-loaded cells and lactate transport activity may be determined as described for Assay 1.

Chain of MCT1 (P53985 whole entry): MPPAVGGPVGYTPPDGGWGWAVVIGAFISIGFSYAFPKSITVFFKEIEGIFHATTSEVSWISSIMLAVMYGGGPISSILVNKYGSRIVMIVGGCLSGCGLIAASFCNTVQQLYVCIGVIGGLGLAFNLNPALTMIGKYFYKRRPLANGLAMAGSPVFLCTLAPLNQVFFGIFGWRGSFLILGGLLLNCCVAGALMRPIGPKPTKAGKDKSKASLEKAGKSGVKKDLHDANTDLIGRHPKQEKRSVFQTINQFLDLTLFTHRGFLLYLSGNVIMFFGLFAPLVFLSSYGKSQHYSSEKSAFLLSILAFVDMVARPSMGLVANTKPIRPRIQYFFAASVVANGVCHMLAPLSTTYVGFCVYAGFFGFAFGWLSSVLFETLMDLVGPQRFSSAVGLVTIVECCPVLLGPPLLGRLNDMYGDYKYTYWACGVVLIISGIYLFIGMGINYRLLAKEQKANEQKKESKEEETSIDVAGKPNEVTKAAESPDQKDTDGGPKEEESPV
Chain of MCT1 (P35613 140-385 partner): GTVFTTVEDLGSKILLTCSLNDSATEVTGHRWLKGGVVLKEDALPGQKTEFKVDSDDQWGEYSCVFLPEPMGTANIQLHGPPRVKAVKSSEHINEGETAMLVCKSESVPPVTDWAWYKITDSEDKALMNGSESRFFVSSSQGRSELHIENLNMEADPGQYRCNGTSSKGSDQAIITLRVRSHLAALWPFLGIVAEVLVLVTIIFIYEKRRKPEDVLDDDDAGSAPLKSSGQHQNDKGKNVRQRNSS

IC50 (MCT1) [nM] | IC50 (MCT4) [nM] | SMILES
83000 | 79 | COc1cccc(-c2cc(COC(C)(C)C(=O)O)nn2Cc2ccccc2C)c1 [Example 32, 2-[[5-(3-Methoxyphenyl)-1-(o-tolylmethyl)pyrazol-3-yl]methoxy]-2-methyl-propanoic acid]
> 11000 | 9.3 | CC(C)(OCc1cc(-c2cccc(OC(F)(F)F)c2)n(Cc2ccccc2Cl)n1)C(=O)O [Example 34, 2-[[1-[(2-Chlorophenyl)methyl]-5-[3-(trifluoromethoxy)phenyl]pyrazol-3-yl]methoxy]-2-methyl-propanoic acid]
> 100000 | 520 | CC(C)(OCc1cc(-c2cccc(CN3CCOCC3)c2)n(Cc2ccccc2Cl)n1)C(=O)O [Example 40, 2-[[1-[(2-Chlorophenyl)methyl]-5-[3-(morpholinomethyl)phenyl]pyrazol-3-yl]methoxy]-2-methyl-propanoic acid]
1200 | 55 | COc1cccc(-c2cc(COC3(C(=O)O)CCC3)nn2Cc2ccccc2Cl)c1 [Example 41, 1-[[1-[(2-Chlorophenyl)methyl]-5-(3-methoxyphenyl)pyrazol-3-yl]methoxy]cyclobutanecarboxylic acid]
> 33000 | 13 | CC(C)(OCc1cc(-c2cccc(OCC(F)(F)F)c2)n(Cc2ccccc2Cl)n1)C(=O)O [Example 43, 2-[[1-[(2-Chlorophenyl)methyl]-5-[3-(2,2,2-trifluoroethoxy)phenyl]pyrazol-3-yl]methoxy]-2-methyl-propanoic acid]
12000 | 19 | CC(C)(OCc1cc(-c2cccc(OCC3CCOCC3)c2)n(Cc2ccccc2Cl)n1)C(=O)O [Example 45, 2-[[1-[(2-Chlorophenyl)methyl]-5-[3-(tetrahydropyran-4-ylmethoxy)phenyl]pyrazol-3-yl]methoxy]-2-methyl-propanoic acid]
47000 | 142 | CC(C)(OCc1cc(-c2cccc(N3CCOCC3)c2)n(Cc2ccccc2Cl)n1)C(=O)O [Example 46, 2-[[1-[(2-Chlorophenyl)methyl]-5-(3-morpholinophenyl)pyrazol-3-yl]methoxy]-2-methyl-propanoic acid]
> 100000 | 410 | CC(C)(OCc1cc(-c2cscn2)n(Cc2ccccc2Cl)n1)C(=O)O [Example 47, 2-([1-[(o-Chlorophenyl)methyl]-5-(1,3-thiazol-4-yl)-1H-pyrazol-3-yl]methoxy)-2-methylpropionic acid]
55000 | 89 | CC(C)(OCc1cc(-c2cccc(C#N)c2)n(Cc2ccccc2Cl)n1)C(=O)O [Example 48, 2-([1-[(o-Chlorophenyl)methyl]-5-(m-cyanophenyl)-1H-pyrazol-3-yl]methoxy)-2-methylpropionic acid]
130000 | 240 | CC(C)(OCc1cc(-c2cncs2)n(Cc2ccccc2Cl)n1)C(=O)O [Example 49, 2-([1-[(o-Chlorophenyl)methyl]-5-(1,3-thiazol-5-yl)-1H-pyrazol-3-yl]methoxy)-2-methylpropionic acid]
34000 | 70 | CN(C)c1cccc(-c2cc(COC(C)(C)C(=O)O)nn2Cc2ccccc2Cl)c1 [Example 50, 2-([1-[(o-Chlorophenyl)methyl]-5-[m-(dimethylamino)phenyl]-1H-pyrazol-3-yl]methoxy)-2-methylpropionic acid]
6000 | 15 | CC(C)c1cccc(-c2cc(COC(C)(C)C(=O)O)nn2Cc2ccccc2Cl)c1 [Example 51, 2-([1-[(2-Chlorophenyl)methyl]-5-[3-(propan-2-yl)phenyl]-1H-pyrazol-3-yl]methoxy)-2-methylpropanoic Acid]
84000 | 190 | COCc1cccc(-c2cc(COC(C)(C)C(=O)O)nn2Cc2ccccc2Cl)c1 [Example 52, 2-([1-[(2-chlorophenyl)methyl]-5-[3-(methoxymethyl)phenyl]-1H-pyrazol-3-yl]methoxy)-2-methylpropanoic acid]
> 100000 | 160 | COc1cccc(-c2cc(COC(C)(C)C(=O)O)nn2Cc2ccccc2)c1 [Example 53, 2-[[1-benzyl-5-(3-methoxyphenyl)-1H-pyrazol-3-yl]methoxy]-2-methylpropanoic acid]
44000 | 13 | CC(C)COc1cccc(-c2cc(COC(C)(C)C(=O)O)nn2Cc2ccccc2)c1 [Example 60, 2-([1-Benzyl-5-[3-(2-methylpropoxy)phenyl]-1H-pyrazol-3-yl]methoxy)-2-methylpropanoic Acid]
11000 | 3.1 | COc1ccccc1Cn1nc(COC(C)(C)C(=O)O)cc1-c1cccc(OCC(C)C)c1 [Example 61, 2-([1-[(2-methoxyphenyl)methyl]-5-[3-(2-methylpropoxy)phenyl]-1H-pyrazol-3-yl]methoxy)-2-methylpropanoic acid]
27000 | 33 | COc1cccc(Cn2nc(COC(C)(C)C(=O)O)cc2-c2cccc(OCC(C)C)c2)c1 [Example 62, 2-([1-[(3-methoxyphenyl)methyl]-5-[3-(2-methylpropoxy)phenyl]-1H-pyrazol-3-yl]methoxy)-2-methylpropanoic acid]
17000 | 37 | COc1ccc(Cn2nc(COC(C)(C)C(=O)O)cc2-c2cccc(OCC(C)C)c2)cc1 [Example 63, 2-([1-[(4-methoxyphenyl)methyl]-5-[3-(2-methylpropoxy)phenyl]-1H-pyrazol-3-yl]methoxy)-2-methylpropanoic acid]
17000 | 11 | CCC(CC)(OCc1cc(-c2cccc(OC)c2)n(Cc2ccccc2Cl)n1)C(=O)O [Example 67]
> 100000 | 5800 | CC(C)C(=O)Nc1cccc(-c2cc(COC(C)(C)C(=O)O)nn2Cc2ccccc2Cl)c1 [Example 69, 2-([1-[(2-Chlorophenyl)methyl]-5-[3-(2-methylpropanamido)phenyl]-1H-pyrazol-3-yl]methoxy)-2-methylpropanoic Acid]
> 100000 | 9300 | CC(C)(OCc1cc(-c2cccc(S(C)(=O)=O)c2)n(Cc2ccccc2Cl)n1)C(=O)O [Example 70, 2-([1-[(2-chlorophenyl)methyl]-5-(3-methanesulfonylphenyl)-1H-pyrazol-3-yl]methoxy)-2-methylpropanoic Acid]
64000 | 34000 | CC(C)(OCc1cc(-c2cccc(NS(C)(=O)=O)c2)n(Cc2ccccc2Cl)n1)C(=O)O [Example 71, 2-([1-[(2-chlorophenyl)methyl]-5-(3-methanesulfonamidophenyl)-1H-pyrazol-3-yl]methoxy)-2-methylpropanoic Acid]
45000 | 220 | CNc1cccc(-c2cc(COC(C)(C)C(=O)O)nn2Cc2ccccc2Cl)c1 [Example 72, 2-([1-[(2-Chlorophenyl)methyl]-5-[3-(methylamino)phenyl]-1H-pyrazol-3-yl]methoxy)-2-methylpropanoic Acid]
> 11000 | 21 | CC(C)CNc1cccc(-c2cc(COC(C)(C)C(=O)O)nn2Cc2ccccc2Cl)c1 [Example 73, 2-([1-[(2-chlorophenyl)methyl]-5-[3-[(2-methylpropyl)amino]phenyl]-1H-pyrazol-3-yl]methoxy)-2-methylpropanoic Acid]
> 100000 | 6400 | CC(C)NC(=O)c1cccc(-c2cc(COC(C)(C)C(=O)O)nn2Cc2ccccc2Cl)c1 [Example 74, 2-([1-[(o-Chlorophenyl)methyl]-5-[m-(isopropylamino)carbonylphenyl]-1H-pyrazol-3-yl]methoxy)-2-methylpropionic Acid]
> 100000 | 1700 | CC(C)(OCc1cc(Nc2ccccc2)n(Cc2ccccc2Cl)n1)C(=O)O [Example 75, 2-([1-[(2-chlorophenyl)methyl]-5-(phenylamino)-1H-pyrazol-3-yl]methoxy)-2-methylpropanoic Acid]
38000 | 400 | CC(C)(OCc1cc(Oc2ccccc2)n(Cc2ccccc2Cl)n1)C(=O)O [Example 76, 2-([1-[(2-Chlorophenyl)methyl]-5-phenoxy-1H-pyrazol-3-yl]methoxy)-2-methylpropanoic Acid]
15000 | 59 | CC(C)(OCc1cc(-c2cccc(O)c2)n(Cc2ccccc2Cl)n1)C(=O)O [Example 79, 2-[[1-[(2-Chlorophenyl)methyl]-5-(3-hydroxyphenyl)pyrazol-3-yl]methoxy]-2-methyl-propanoic Acid]

SMILES | IC50 (MCT1) [nM] | IC50 (MCT4) [nM]
CC(C)(OCc1cc(-c2cccc(OCC3CC3)c2)n(Cc2ccccc2Cl)n1)C(=O)O [Example 33, 2-[[1-[(2-Chlorophenyl)methyl]-5-[3-(cyclopropylmethoxy)phenyl]pyrazol-3-yl]methoxy]-2-methyl-propanoic acid] | 9100 | 3.2
CC(C)(OCc1cc(-c2cccc(OC3CCC3)c2)n(Cc2ccccc2Cl)n1)C(=O)O [Example 37, 2-[[1-[(2-Chlorophenyl)methyl]-5-[3-(cyclobutoxy)phenyl]pyrazol-3-yl]methoxy]-2-methyl-propanoic acid] | 8400 | 7.6
